Assays:
[1] = species: Oryctolagus cuniculus; assay: Test against PAF-induced aggregation of rabbit platelets in vitro; assay type: functional
[2] = species: Cavia porcellus; assay: Ability to inhibit histamine-induced contractions of isolated guinea pig ileum at 10e-5 M; assay type: functional
[3] = species: Cavia porcellus; assay: Ability to inhibit histamine-induced contractions of isolated guinea pig ileum; assay type: functional
[4] = target: T1, Polyunsaturated fatty acid 5-lipoxygenase (Homo sapiens) (UniProt P09917); assay: Inhibitory activity uM; conditions: Cavia porcellus; concentration not given here
T1 sequence (whole entry): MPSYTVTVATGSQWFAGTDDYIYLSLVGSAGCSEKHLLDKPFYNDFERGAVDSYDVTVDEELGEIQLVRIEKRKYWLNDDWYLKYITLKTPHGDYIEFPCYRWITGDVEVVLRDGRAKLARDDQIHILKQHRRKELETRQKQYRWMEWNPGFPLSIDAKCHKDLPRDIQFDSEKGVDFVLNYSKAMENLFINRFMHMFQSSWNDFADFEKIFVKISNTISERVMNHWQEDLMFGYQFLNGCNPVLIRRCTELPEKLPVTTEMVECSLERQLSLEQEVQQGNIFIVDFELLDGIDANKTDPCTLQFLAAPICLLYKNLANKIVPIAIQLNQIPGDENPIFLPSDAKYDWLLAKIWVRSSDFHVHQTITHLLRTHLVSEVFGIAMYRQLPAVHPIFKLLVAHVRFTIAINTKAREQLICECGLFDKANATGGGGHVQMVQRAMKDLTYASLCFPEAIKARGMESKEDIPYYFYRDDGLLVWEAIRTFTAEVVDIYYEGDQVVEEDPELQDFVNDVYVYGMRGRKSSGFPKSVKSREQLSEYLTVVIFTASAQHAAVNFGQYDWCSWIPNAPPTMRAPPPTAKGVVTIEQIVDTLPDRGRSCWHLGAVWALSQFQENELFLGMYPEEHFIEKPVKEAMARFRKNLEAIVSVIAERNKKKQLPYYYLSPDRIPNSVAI

[5] = species: Rattus norvegicus; assay: Inhibition of cutaneous histamine reaction in rats.; assay type: functional

Row | SMILES | IC50 [1] | inhibition at 10 µM [2] | IC50 [3] | inhibition [4] | ED50 [5] | IC50 [2]
1 | Cc1ccnc(N2CCN(CCc3c(-c4ccc(Cl)cc4)n4c5c(cccc35)CCC4)CC2)c1 | 3.3 µM | 6% | – | – | – | –
2 | Cc1c(CCN2CCN(c3ccc(F)c(Cl)c3)CC2)c2cccc3c2n1CCC3 | > 100 µM | – | 510 nM | – | – | –
3 | Cc1ccnc(N2CCN(CCc3c(C)n4c5c(cc(C(=O)c6ccccc6)cc35)CCC4)CC2)c1 | 0.8 µM | – | 290 nM | – | – | –
4 | Cc1ccnc(N2CCN(CCc3c(Cc4ccccc4)n4c5c(cccc35)CCC4)CC2)c1 | 22 µM | – | 2900 nM | – | – | –
5 | CCCCCCCC1CCc2cccc3c(CCN4CCN(c5cc(C)ccn5)CC4)c(C)n1c23 (stereo not drawn) | – | 50% | – | – | – | –
6 | Cc1ccc(N2CCN(C(=O)Cc3c(C)n4c5c(cccc35)CCC4)CC2)nc1 | 42 µM | – | 8300 nM | – | – | –
7 | Cc1ccnc(N2CCN(CCc3c(C)n4c5c(cccc35)CCC4c3ccccc3)CC2)c1 (stereo not drawn) | 2.2 µM | – | 280 nM | 17% | 2.9 µmol/kg | –
8 | Cc1cccnc1N1CCN(CCc2c(C)n3c4c(cccc24)CCC3)CC1 | 67 µM | 7% | – | – | – | –
9 | Cc1cccc(N2CCN(CCc3c(C)n4c5c(cccc35)CCC4)CC2)n1 | 47 µM | – | 350 nM | – | – | –
10 | Cc1c(CCCN2CCN(c3ccc(F)cc3)CC2)c2cccc3c2n1CCC3 | > 100 µM | – | 1900 nM | – | – | –
11 | Cc1ccnc(N2CCN(CCc3c(C)n4c5c(cc(C(=O)/C=C/c6ccccc6)cc35)CCC4)CC2)c1 | – | – | 190 nM | – | – | –
12 | Cc1c(CCN2CCN(c3ccccn3)CC2)c2cccc3c2n1CCC3 | 40 µM | – | 65 nM | – | – | –
13 | Cc1ccnc(N2CCN(CCc3c(C)n4c5c(cc(C(=O)C(C)(C)C)cc35)CCC4)CC2)c1 | 5.9 µM | – | 89 nM | 22% | 3.3 µmol/kg | –
14 | Cc1ccnc(N2CCN(CCc3c(C)n4c5c(cc(C(O)C(C)C)cc35)CCC4)CC2)c1 (stereo not drawn) | 4.2 µM | – | 110 nM | 8% | 2.6 µmol/kg | –
15 | CCCCCCC(=O)c1cc2c3c(c1)c(CCN1CCN(c4cc(C)ccn4)CC1)c(C)n3CCC2 | 2.4 µM | – | 1200 nM | – | – | –
16 | COc1ccc(N2CCN(CCc3c(C)n4c5c(cccc35)CCC4)CC2)cc1 | 82 µM | 9% | – | – | – | –
17 | Cc1ccc(-c2c(CCN3CCN(c4cc(C)ccn4)CC3)c3cccc4c3n2CCC4)cc1 | 2 µM | – | – | – | – | 20 µM
18 | Cc1ccc(N2CCN(CCc3c(C)n4c5c(cccc35)CCC4)CC2)nc1 | > 100 µM | – | 180 nM | – | – | –
19 | Cc1ccnc(N2CCN(CCc3c(C)n4c5c(cc(CC6CCCCC6)cc35)CCC4)CC2)c1 | 39 µM | 50% | – | – | – | –
20 | Cc1ccnc(N2CCN(CCc3c(C)n4c5c(cc(NC(=O)c6ccccc6)cc35)CCC4)CC2)c1 | > 100 µM | – | 86 nM | 40% | 3 µmol/kg | –
21 | O=C(O)COCCN1CCN(C(c2ccccc2)c2ccc(Cl)cc2)CC1 (stereo not drawn) [CETIRIZINE] | > 100 µM | – | 380 nM | – | – | –
22 | CCCCC1CCc2cccc3c(CCN4CCN(c5cc(C)ccn5)CC4)c(C)n1c23 (stereo not drawn) | 4.8 µM | – | 980 nM | 29% | 2.1 µmol/kg | –
23 | CC(=O)Oc1cc2c3c(c1)c(CCN1CCN(c4cc(C)ccn4)CC1)c(C)n3CCC2 | – | – | 23 nM | – | – | –
24 | Cc1ccnc(N2CCN(CCc3c(-c4ccc(F)cc4)n4c5c(cccc35)CCC4)CC2)c1 | 2 µM | 3% | – | – | – | –
25 | Cc1ccnc(N2CCN(CCc3c(C)n4c5c(cc(CC(C)C)cc35)CCC4)CC2)c1 | 4.3 µM | – | 800 nM | 20% | 5.1 µmol/kg | –
26 | COc1cc2c3c(c1)c(CCN1CCN(c4cc(C)ccn4)CC1)c(C)n3CCC2 | 6.2 µM | – | 30 nM | 15% | 0.7 µmol/kg | –

Row | SMILES | IC50 [1] | inhibition at 10 µM [2] | IC50 [3] | inhibition [4] | ED50 [5] | IC50 [2]
27 | Cc1ccnc(N2CCN(CCc3c(-c4ccc(O)cc4)n4c5c(cccc35)CCC4)CC2)c1 | 2 µM | 14% | – | – | – | –
28 | CC(C)=Cc1cc2c3c(c1)c(CCN1CCN(c4cc(C)ccn4)CC1)c(C)n3CCC2 | 22 µM | – | 140 nM | 41% | 4.9 µmol/kg | –
29 | COc1ccccc1N1CCN(CCc2c(C)n3c4c(cccc24)CCC3)CC1 | 82 µM | – | 250 nM | – | – | –
30 | Cc1ccnc(N2CCN(CCCc3c(C)n4c5c(cccc35)CCC4)CC2)c1 | 32 µM | – | 1800 nM | – | – | –
31 | Cc1c(CCN2CCN(c3ccc(Br)cn3)CC2)c2cccc3c2n1CCC3 | > 100 µM | – | 990 nM | – | – | –
32 | Cc1c(CCN2CCC(C(=O)c3ccc(F)cc3)CC2)c2cccc3c2n1CCC3 | > 100 µM | – | 490 nM | – | – | –
33 | Cc1ccnc(N2CCN(CCc3c(C)n4c5c(cc(O)cc35)CCC4)CC2)c1 | 39 µM | – | 21 nM | – | 6 µmol/kg | –
34 | Cc1ccnc(N2CCN(C(=O)Cc3c(C)n4c5c(cccc35)CCC4)CC2)c1 | 9.6 µM | – | 5900 nM | – | – | –
35 | Cc1ccnc(N2CCN(CCc3c(C)n4c5c(cc(C)cc35)CCC4)CC2)c1 | 9.1 µM | – | 70 nM | – | – | –
36 | Cc1ccnc(N2CCN(CCc3c(-c4ccccc4)n4c5c(cccc35)CCC4)CC2)c1 | 4.2 µM | 24% | – | – | – | –
37 | Cc1c(CCN2CCC(c3ccccc3)CC2)c2cccc3c2n1CCC3 | 75 µM | – | 450 nM | – | – | –
38 | Cc1ccnc(N2CCN(CCc3c(C)n4c5c(cc(C(=O)C6CCCCC6)cc35)CCC4)CC2)c1 | 2 µM | – | 250 nM | 68% | 2.9 µmol/kg | –
39 | Cc1ccnc(N2CCN(C(=O)CCc3c(C)n4c5c(cccc35)CCC4)CC2)c1 | 20 µM | – | 1400 nM | – | – | –
40 | Cc1ccnc(N2CCN(CCc3c(C)n4c5c(cc(Cc6ccccc6)cc35)CCC4)CC2)c1 | 2.8 µM | – | 2400 nM | – | – | –
41 | CCCCC1CCc2cc(OC)cc3c(CCN4CCN(c5cc(C)ccn5)CC4)c(C)n1c23 (stereo not drawn) | 1.4 µM | – | 340 nM | 50% | 0.9 µmol/kg | –
42 | Cc1ccnc(N2CCN(CCc3c(C)n4c5c(cccc35)CCC4)CC2)c1 | 2.6 µM | – | 32 nM | 0% | 4 µmol/kg | –
43 | Cc1ccnc(N2CCN(CCc3c(C)n4c5c(cccc35)CCC4C)CC2)c1 (stereo not drawn) | 6.9 µM | – | 33 nM | 19% | 2.6 µmol/kg | –
44 | COc1ccc(CN(CCN(C)C)c2ccccn2)cc1 [PYRILAMINE] | > 100 µM | – | 17 nM | – | – | –
45 | Cc1ccnc(N2CCN(CCc3c(C)n4c5c(cccc35)CCC4C3CCCCC3)CC2)c1 (stereo not drawn) | 25 µM | 50% | – | – | – | –
46 | CCCCC1CCc2cc(C(=O)C(C)C)cc3c(CCN4CCN(c5cc(C)ccn5)CC4)c(C)n1c23 (stereo not drawn) | 2 µM | – | 400 nM | 50% | 3.3 µmol/kg | –
47 | CC(=O)c1cc2c3c(c1)c(CCN1CCN(c4cc(C)ccn4)CC1)c(C)n3CCC2 | 7.5 µM | – | 19 nM | 48% | 2 µmol/kg | –
48 | Cc1c(CC(=O)N2CCN(c3ccc(F)cc3)CC2)c2cccc3c2n1CCC3 | 44 µM | – | 7100 nM | – | – | –
49 | Cc1ccnc(N2CCN(CCc3cn4c5c(cccc35)CCC4)CC2)c1 | 31 µM | – | 63 nM | – | – | –
50 | Cc1c(CCN2CCN(c3ccc(F)cc3)CC2)c2cccc3c2n1CCC3 | > 100 µM | – | 76 nM | – | – | –
51 | COc1ccc(-c2c(CCN3CCN(c4cc(C)ccn4)CC3)c3cccc4c3n2CCC4)cc1 | 0.6 µM | 15% | – | – | – | –
